Measurements reported in patent US20220340633A1 (Adepthera LLC, priority 2016, published 2022).

Biological target: CLR/RAMP3 receptor (Homo sapiens, UniProt O60896+Q16602)
Conditions: antagonist mode
Description: Using a receptor activation assay, the dose-dependent stimulatory response of peptide agonists of the present invention on a CLR/RAMP1 receptor, a CLR/RAMP2, or a CLR/RAMP3 receptor complex was determined. A cell line carrying the recombinant CLR/RAMP1, CLR/RAMP2, or a CLR/RAMP3 receptor was employed in the assay. Peptide agonist activities were tested, in duplicate, at 10 different concentrations, starting with 1.0 μM and serially diluted 3-fold, in DMSO. […] The CLR/RAMP1 cAMP, CLR/RAMP2 arrestin assays, and CLR/RAMP3 cAMP (DiscoveRx, Fremont, Calif.) were used.
For the analysis of antagonistic activity, the synthetic analogs were pre-incubated with the cells before adding the reference ligand at its EC80.

Sequence of CLR/RAMP3 receptor (Q16602 23-461): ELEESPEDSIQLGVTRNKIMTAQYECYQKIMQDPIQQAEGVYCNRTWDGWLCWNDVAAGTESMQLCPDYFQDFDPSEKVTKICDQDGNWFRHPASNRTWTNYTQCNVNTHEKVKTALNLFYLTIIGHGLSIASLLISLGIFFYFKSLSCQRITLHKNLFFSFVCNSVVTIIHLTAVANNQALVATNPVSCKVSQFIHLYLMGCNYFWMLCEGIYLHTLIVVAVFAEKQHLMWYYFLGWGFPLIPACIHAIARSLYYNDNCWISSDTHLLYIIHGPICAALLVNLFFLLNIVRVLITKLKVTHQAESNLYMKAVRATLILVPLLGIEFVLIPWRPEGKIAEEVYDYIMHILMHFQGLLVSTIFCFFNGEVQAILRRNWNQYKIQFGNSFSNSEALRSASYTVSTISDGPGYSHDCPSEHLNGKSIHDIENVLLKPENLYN
Sequence of CLR/RAMP3 receptor (O60896 24-148): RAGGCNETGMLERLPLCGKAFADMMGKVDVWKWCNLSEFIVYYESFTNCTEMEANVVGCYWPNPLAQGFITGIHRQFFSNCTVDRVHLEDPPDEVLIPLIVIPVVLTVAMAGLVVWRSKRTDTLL

SMILES: CCCCCCCCCCCCCCCC(=O)N[C@@H](CCCCN)C(=O)N[C@H](C(=O)N[C@@H](CCC(N)=O)C(=O)N[C@@H](CCCCN)C(=O)N[C@@H](CC(C)C)C(=O)N[C@@H](C)C(=O)N[C@@H](Cc1c[nH]cn1)C(=O)N[C@@H](CCC(N)=O)C(=O)N[C@@H](CO)C(=O)N[C@@H](C)C(=O)N1CCC[C@H]1C(=O)N[C@H](C(=O)N[C@@H](CC(=O)O)C(=O)N1CCC[C@H]1C(=O)N[C@@H](CO)C(=O)N[C@@H](CO)C(=O)N1CCC[C@H]1C(=O)N[C@@H](Cc1c[nH]cn1)C(=O)N[C@@H](CO)C(=O)N[C@@H](Cc1ccc(O)cc1)C(N)=O)C(C)C)C(C)C [SEQ ID NO: 124]
- CLR/RAMP3 Max Activity % of positive control: 102%
